Data as given in patent US20250115669A1, “FGFR1/KLB Targeting Agonistic Antigen-Binding Proteins and Conjugates Thereof with GLP-1R Agonistic Peptides” (SANOFI, priority 2020, published 2025).
Read-outs that look alike come from different tables or passages of the source. Bridge positions count the residues as written; N and C are the ends. Ends that are not written are not given here. Peptide text beside a SMILES is read from it.

What was measured:
Format in all cases: cell-based
human GIP receptor = molecular target: T1, human GIP receptor (Homo sapiens, UniProt P48546); assay: HTRF cAMP assay in HEK-293 cells expressing human GIP receptor
T1 construct: expressed in transfected cells; host or cells: PSC-HEK-293
T1 sequence (P48546 22-466): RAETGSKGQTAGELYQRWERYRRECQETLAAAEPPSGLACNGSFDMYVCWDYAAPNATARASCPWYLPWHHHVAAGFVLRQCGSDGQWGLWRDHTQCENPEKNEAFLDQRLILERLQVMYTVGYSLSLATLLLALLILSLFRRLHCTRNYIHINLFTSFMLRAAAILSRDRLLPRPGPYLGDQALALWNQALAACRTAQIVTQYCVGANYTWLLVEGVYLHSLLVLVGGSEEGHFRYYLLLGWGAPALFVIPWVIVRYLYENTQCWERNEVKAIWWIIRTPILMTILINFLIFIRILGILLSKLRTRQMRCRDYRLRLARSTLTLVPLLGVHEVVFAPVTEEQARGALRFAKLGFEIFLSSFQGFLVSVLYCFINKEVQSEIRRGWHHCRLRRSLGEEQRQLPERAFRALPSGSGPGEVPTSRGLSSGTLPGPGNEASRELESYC
Procedure: (§1) Each vial contained 1.8 ml cells. The vials were slowly frozen to −80° C. in isopropanol, and then transferred in liquid nitrogen for storage.
(§2) Cells were resuspended in assay buffer (cell buffer plus 2 mM IBMX) and adjusted to a cell density of 1 million cells/ml.
(§3) For measurement of cAMP generation, 5 μl cells (final 5000 cells/well) and 5 μl of test compound were added to a 384-well plate, followed by incubation for 30 min at room temperature.
(§4) The cAMP generated was determined using a kit from Cisbio Corp. based on HTRF (Homogenous Time Resolved Fluorescence). The cAMP assay was performed according to manufacturer's instructions (Cisbio).

[1] = molecular target: T2, human glucagon (GCG) receptor (Homo sapiens, UniProt P47871); assay: HTRF cAMP assay in HEK-293 cells expressing human glucagon receptor
T2 construct: expressed in transfected cells; host or cells: PSC-HEK-293
T2 sequence (P47871 26-477): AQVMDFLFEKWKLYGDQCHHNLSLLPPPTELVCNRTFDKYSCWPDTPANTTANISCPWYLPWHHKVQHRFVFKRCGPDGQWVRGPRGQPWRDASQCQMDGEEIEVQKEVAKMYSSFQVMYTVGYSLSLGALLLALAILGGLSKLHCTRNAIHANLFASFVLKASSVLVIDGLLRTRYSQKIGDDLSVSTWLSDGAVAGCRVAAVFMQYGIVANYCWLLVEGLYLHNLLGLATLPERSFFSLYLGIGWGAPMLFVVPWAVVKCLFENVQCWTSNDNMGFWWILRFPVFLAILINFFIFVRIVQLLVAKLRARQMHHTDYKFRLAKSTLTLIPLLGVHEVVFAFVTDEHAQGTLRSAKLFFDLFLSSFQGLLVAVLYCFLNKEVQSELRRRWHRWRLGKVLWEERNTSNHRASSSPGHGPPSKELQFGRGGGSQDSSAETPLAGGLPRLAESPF
Procedure: as §1, §2, §3, §4

human GLP-1 receptor = molecular target: T3, human GLP-1 receptor (Homo sapiens, UniProt P43220); assay: HTRF cAMP assay in HEK-293 cells expressing human GLP-1 receptor
T3 construct: expressed in transfected cells; host or cells: PSC-HEK-293
T3 sequence (P43220 24-463): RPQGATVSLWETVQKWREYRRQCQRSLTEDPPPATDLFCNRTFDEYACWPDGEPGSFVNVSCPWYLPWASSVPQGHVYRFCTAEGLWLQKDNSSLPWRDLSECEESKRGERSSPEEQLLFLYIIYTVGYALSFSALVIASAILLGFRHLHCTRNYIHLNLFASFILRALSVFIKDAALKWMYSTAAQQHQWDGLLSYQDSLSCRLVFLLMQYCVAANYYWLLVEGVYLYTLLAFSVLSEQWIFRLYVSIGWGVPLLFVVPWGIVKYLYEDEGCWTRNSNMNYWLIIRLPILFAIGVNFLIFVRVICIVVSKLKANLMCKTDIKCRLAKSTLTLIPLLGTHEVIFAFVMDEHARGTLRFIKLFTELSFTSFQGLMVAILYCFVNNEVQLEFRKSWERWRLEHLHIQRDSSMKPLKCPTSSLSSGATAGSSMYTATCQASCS
Procedure: as §1, §2, §3, §4

[2] = HEK-293 cells, read-out: HTRF cAMP EC50 Human GIPR
[3] = HEK-293 cells, read-out: HTRF cAMP EC50 Human GCGR

EC50 (human GIP receptor; [2]) [nM] | EC50 [1, 3] [nM] | Molecule | EC50 (human GLP-1 receptor) [nM] | other results
 |  | CC[C@H](C)[C@H](NC(=O)[C@H](Cc1ccccc1)NC(=O)[C@H](CC(C)C)NC(=O)[C@H](CCCNC(=N)N)NC(=O)[C@@H](NC(=O)[C@H](C)NC(=O)[C@H](CCC(=O)O)NC(=O)[C@H](CCC(=O)O)NC(=O)[C@H](CCC(=O)O)NC(=O)[C@H](CC(C)C)NC(=O)[C@H](CCC(N)=O)NC(=O)[C@H](CCCCN)NC(=O)[C@H](CO)NC(=O)[C@H](CC(C)C)NC(=O)[C@H](CC(=O)O)NC(=O)[C@H](CO)NC(=O)[C@@H](NC(=O)[C@H](Cc1ccccc1)NC(=O)[C@@H](NC(=O)CNC(=O)[C@H](CCC(=O)O)NC(=O)CNC(=O)[C@H](Cc1c[nH]cn1)NC(=O)CN)[C@@H](C)O)[C@@H](C)O)C(C)C)C(=O)N[C@@H](CCC(=O)O)C(=O)N[C@@H](Cc1c[nH]c2ccccc12)C(=O)N[C@@H](CC(C)C)C(=O)N[C@@H](CCCCN)C(=O)N[C@@H](C)C(=O)NCC(=O)NCC(=O)N1CCC[C@H]1C(=O)N[C@@H](CO)C(=O)N[C@@H](CO)C(=O)NCC(=O)N[C@@H](C)C(=O)N1CCC[C@H]1C(=O)N1CCC[C@H]1C(=O)N1CCC[C@H]1C(=O)N[C@@H](CO)C(N)=O [Ab P017] (H-GHGEGTFTSDLSKQLEEEAVRLFIEWLKAGGPSSGAPPPS-NH2) | 0.0085 | EC50 (human GIP receptor): > 10 nM; EC50 [1]: > 10 nM
 |  | CC[C@H](C)[C@H](NC(=O)[C@H](CO)NC(=O)[C@H](CC(C)C)NC(=O)[C@H](CC(=O)O)NC(=O)[C@H](CO)NC(=O)[C@@H](NC(=O)[C@H](Cc1ccccc1)NC(=O)[C@@H](NC(=O)CNC(=O)[C@H](CCC(=O)O)NC(=O)CNC(=O)[C@H](Cc1c[nH]cn1)NC(=O)CN)[C@@H](C)O)[C@@H](C)O)C(=O)N[C@@H](CCC(N)=O)C(=O)N[C@@H](CC(C)C)C(=O)N[C@@H](CCC(=O)O)C(=O)N[C@@H](CCC(=O)O)C(=O)N[C@@H](CCC(=O)O)C(=O)N[C@@H](C)C(=O)N[C@H](C(=O)N[C@@H](CCCNC(=N)N)C(=O)N[C@@H](CC(C)C)C(=O)N[C@@H](Cc1ccccc1)C(=O)N[C@H](C(=O)N[C@@H](CCC(=O)O)C(=O)N[C@@H](Cc1c[nH]c2ccccc12)C(=O)N[C@@H](CC(C)C)C(=O)N[C@@H](CC(C)C)C(=O)N[C@@H](C)C(=O)NCC(=O)NCC(=O)N1CCC[C@H]1C(=O)N[C@@H](CO)C(=O)N[C@@H](CO)C(=O)NCC(=O)N[C@@H](C)C(=O)N1CCC[C@H]1C(=O)N1CCC[C@H]1C(=O)N1CCC[C@H]1C(=O)N[C@@H](CO)C(N)=O)[C@@H](C)CC)C(C)C [Ab P019] | 0.0276 | 
 |  | CC[C@H](C)[C@H](NC(=O)[C@H](Cc1ccccc1)NC(=O)[C@H](CC(C)C)NC(=O)[C@H](CCC(N)=O)NC(=O)[C@@H](NC(=O)[C@H](C)NC(=O)[C@H](CCC(=O)O)NC(=O)[C@H](CCC(=O)O)NC(=O)[C@H](CCC(=O)O)NC(=O)[C@H](CC(C)C)NC(=O)[C@H](CCC(N)=O)NC(=O)[C@H](CCCCN)NC(=O)[C@H](CO)NC(=O)[C@H](CC(C)C)NC(=O)[C@H](CC(=O)O)NC(=O)[C@H](CO)NC(=O)[C@@H](NC(=O)[C@H](Cc1ccccc1)NC(=O)[C@@H](NC(=O)CNC(=O)[C@H](CCC(=O)O)NC(=O)CNC(=O)[C@@H](N)Cc1c[nH]cn1)[C@@H](C)O)[C@@H](C)O)C(C)C)C(=O)N[C@@H](CCC(=O)O)C(=O)N[C@@H](Cc1c[nH]c2ccccc12)C(=O)N[C@@H](CC(C)C)C(=O)N[C@@H](CC(C)C)C(=O)N[C@@H](C)C(=O)N[C@H](C(=O)NCC(=O)N1CCC[C@H]1C(=O)N[C@@H](CO)C(=O)N[C@@H](CO)C(=O)NCC(=O)N[C@@H](C)C(=O)N1CCC[C@H]1C(=O)N1CCC[C@H]1C(=O)N1CCC[C@H]1C(=O)N[C@@H](CO)C(N)=O)[C@@H](C)O [Ab P010] (H-HGEGTFTSDLSKQLEEEAVQLFIEWLLATGPSSGAPPPS-NH2) | 0.0035 | 
 |  | CC[C@H](C)[C@H](NC(=O)[C@H](CO)NC(=O)[C@H](CC(C)C)NC(=O)[C@H](CC(=O)O)NC(=O)[C@H](CO)NC(=O)[C@@H](NC(=O)[C@H](Cc1ccccc1)NC(=O)[C@@H](NC(=O)CNC(=O)[C@H](CCC(=O)O)NC(=O)CNC(=O)[C@@H](N)Cc1c[nH]cn1)[C@@H](C)O)[C@@H](C)O)C(=O)N[C@@H](CCC(N)=O)C(=O)N[C@@H](CC(C)C)C(=O)N[C@@H](CC(=O)O)C(=O)N[C@@H](CCC(=O)O)C(=O)N[C@@H](CCC(=O)O)C(=O)N[C@@H](C)C(=O)N[C@H](C(=O)N[C@@H](CCCNC(=N)N)C(=O)N[C@@H](CC(C)C)C(=O)N[C@@H](Cc1ccccc1)C(=O)N[C@H](C(=O)N[C@@H](CCC(=O)O)C(=O)N[C@@H](Cc1c[nH]c2ccccc12)C(=O)N[C@@H](CC(C)C)C(=O)N[C@@H](CC(C)C)C(=O)N[C@@H](C)C(=O)N[C@H](C(=O)NCC(=O)N1CCC[C@H]1C(=O)N[C@H](C(=O)N[C@@H](CO)C(=O)NCC(=O)N[C@@H](C)C(=O)N1CCC[C@H]1C(=O)N1CCC[C@H]1C(=O)N1CCC[C@H]1C(=O)N[C@@H](CO)C(N)=O)C(C)C)[C@@H](C)O)[C@@H](C)CC)C(C)C [Ab P005] | 0.0031 | 
0.024 | > 10 | HGEGTFTSDLSILCEKRAVHEFIEWLIAGGPSSGKPPPKPGC-NH2 (disulfide 14-42) [Ab P033] |  | 
0.257 | > 10 | HGEGTFTSDLSILCEKRAVHEFIEWLKAGGPSSGKPPPKPGC-NH2 (disulfide 14-42) [Ab P034] |  | 
 |  | CC[C@H](C)[C@H](NC(=O)[C@H](CO)NC(=O)[C@H](CC(C)C)NC(=O)[C@H](CC(=O)O)NC(=O)[C@H](CO)NC(=O)[C@@H](NC(=O)[C@H](Cc1ccccc1)NC(=O)[C@@H](NC(=O)CNC(=O)[C@H](CCC(=O)O)NC(=O)CNC(=O)[C@@H](N)Cc1c[nH]cn1)[C@@H](C)O)[C@@H](C)O)C(=O)N[C@@H](CCC(N)=O)C(=O)N[C@@H](CC(C)C)C(=O)N[C@@H](CC(=O)O)C(=O)N[C@@H](CCC(=O)O)C(=O)N[C@@H](CCC(=O)O)C(=O)N[C@@H](C)C(=O)N[C@H](C(=O)N[C@@H](CCCNC(=N)N)C(=O)N[C@@H](CC(C)C)C(=O)N[C@@H](Cc1ccccc1)C(=O)N[C@H](C(=O)N[C@@H](CCC(=O)O)C(=O)N[C@@H](Cc1c[nH]c2ccccc12)C(=O)N[C@@H](CC(C)C)C(=O)N[C@@H](CCC(=O)O)C(=O)N[C@@H](C)C(=O)N[C@H](C(=O)NCC(=O)N1CCC[C@H]1C(=O)N[C@H](C(=O)N[C@@H](CO)C(=O)NCC(=O)N[C@@H](C)C(=O)N1CCC[C@H]1C(=O)N1CCC[C@H]1C(=O)N1CCC[C@H]1C(=O)N[C@@H](CO)C(N)=O)C(C)C)[C@@H](C)O)[C@@H](C)CC)C(C)C [Ab P006] (H-HGEGTFTSDLSIQLDEEAVRLFIEWLEATGPVSGAPPPS-NH2) | 0.0147 | 
 |  | CC[C@H](C)[C@H](NC(=O)[C@H](CO)NC(=O)[C@H](CC(C)C)NC(=O)[C@H](CC(=O)O)NC(=O)[C@H](CO)NC(=O)[C@@H](NC(=O)[C@H](Cc1ccccc1)NC(=O)[C@@H](NC(=O)CNC(=O)[C@H](CCC(=O)O)NC(=O)CNC(=O)[C@H](Cc1c[nH]cn1)NC(=O)CN)[C@@H](C)O)[C@@H](C)O)C(=O)N[C@@H](CCC(N)=O)C(=O)N[C@@H](CC(C)C)C(=O)N[C@@H](CCC(=O)O)C(=O)N[C@@H](CCC(=O)O)C(=O)N[C@@H](CCC(=O)O)C(=O)N[C@@H](C)C(=O)N[C@H](C(=O)N[C@@H](CCCNC(=N)N)C(=O)N[C@@H](CC(C)C)C(=O)N[C@@H](Cc1ccccc1)C(=O)N[C@H](C(=O)N[C@@H](CCC(=O)O)C(=O)N[C@@H](Cc1c[nH]c2ccccc12)C(=O)N[C@@H](CC(C)C)C(=O)N[C@@H](CC(C)C)C(=O)N[C@@H](C)C(=O)N[C@H](C(=O)NCC(=O)N1CCC[C@H]1C(=O)N[C@@H](CO)C(=O)N[C@@H](CO)C(=O)NCC(=O)N[C@@H](C)C(=O)N1CCC[C@H]1C(=O)N1CCC[C@H]1C(=O)N1CCC[C@H]1C(=O)N[C@@H](CO)C(N)=O)[C@@H](C)O)[C@@H](C)CC)C(C)C [Ab P020] | 0.206 | 
1.37 | > 10 | CC[C@H](C)[C@H](NC(=O)[C@H](Cc1ccccc1)NC(=O)[C@H](CCC(=O)O)NC(=O)[C@H](Cc1c[nH]cn1)NC(=O)[C@@H](NC(=O)[C@H](C)NC(=O)[C@H](CCCNC(=N)N)NC(=O)[C@H](CCCCN)NC(=O)[C@H](CCC(=O)O)NC(=O)[C@H](CC(C)C)NC(=O)[C@H](CC(C)C)NC(=O)[C@H](CCCCN)NC(=O)[C@H](CO)NC(=O)[C@H](CC(C)C)NC(=O)[C@H](CC(=O)O)NC(=O)[C@H](CO)NC(=O)[C@@H](NC(=O)[C@H](Cc1ccccc1)NC(=O)[C@@H](NC(=O)CNC(=O)[C@H](CCC(=O)O)NC(=O)CNC(=O)[C@@H](N)Cc1c[nH]cn1)[C@@H](C)O)[C@@H](C)O)C(C)C)C(=O)N[C@@H](CCC(=O)O)C(=O)N[C@@H](Cc1c[nH]c2ccccc12)C(=O)N[C@@H](CC(C)C)C(=O)N[C@@H](CCCCN)C(=O)N[C@@H](C)C(=O)NCC(=O)NCC(=O)N1CCC[C@H]1C(=O)N[C@@H](CO)C(=O)N[C@@H](CO)C(=O)NCC(=O)N[C@@H](CCCCN)C(=O)N1CCC[C@H]1C(=O)N1CCC[C@H]1C(=O)N1CCC[C@H]1C(=O)N[C@@H](CCCCN)C(N)=O [Ab P029] (H-HGEGTFTSDLSKLLEKRAVHEFIEWLKAGGPSSGKPPPK-NH2; N-terminus assumed) |  | 
